Data: PMC4666608, “Metabolic Profiling of Chicken Embryos Exposed to Perfluorooctanoic Acid (PFOA) and Agonists to Peroxisome Proliferator-Activated Receptors” (PLoS ONE, 2015)
Marks after values point to notes of the source that are not given here.

Test system: chicken embryos
Test: Metabolic profiling of blood plasma (GC-MS, LC-MS, OPLS-DA)
Assay type: in vivo, Gallus gallus domesticus
Conditions: LC
Method: Controls were injected with 20 μL vehicle only (DMSO).
Plasma was collected and stored at -70°C.
Metabolites in allantoic fluid and blood plasma were analyzed using gas chromatography-mass spectrometry (GC-MS) and liquid chromatography-mass spectrometry (LC-MS) as described in S1 Methods. Prior to GC-MS and LC-MS analysis, allantoic fluid (100 μL) and blood plasma (50 μL) were extracted. To each sample, 900 μL (allantoic fluid) or 450 μL (blood plasma) of extraction buffer (90/10 v/v methanol:water) including all internal standards were added. Standards for GC-MS were proline, succinic acid, glutamic acid, salicylic acid, alpha-ketoglutarate, putrescine, myristic acid, hexadecanoic acid, cholesterol, and sucrose. Standards for LC-MS were Val-Tyr-Val, Leu-enkephalin, sulfadimethoxine and reserpine. Samples were homogenized by shaking in a bead mill at a frequency of 30 Hz for 3 minutes and proteins were precipitated at +4°C on ice. The samples were centrifuged at +4°C, 14000 rpm, for 10 min. Then, 200 μL supernatant was transferred to a GC microvial and 200 μL was transferred to an LC microvial, and solvents were evaporated. Samples from the four replicate experiments were analyzed using in chronological order and within each replicate experiment the run order of the individual samples was randomized.
Multivariate statistical analyses of metabolite profiles were performed using the software package SIMCA-P version 13.0 (Umetrics, Umeå, Sweden). Data was centered and scaled to variance 1 (UV scaling) prior to modelling. To reduce unintended systematic variation caused by sample processing and instrument drift, GC-MS and LC-MS metabolite amounts (expressed as the area under the chromatographic peak) were normalized by Orthogonal Partial Least Squares analysis (O2PLS) prior to multivariate data analysis. O2PLS finds common (predictive) and unique (orthogonal) variation in two data matrices. If applied to find the common variation between the data matrix containing the measured metabolite concentrations and a matrix containing only the internal standards, the only common (predictive) variation expected is due to the unintended systematic variation. By deleting the contribution of the predictive latent variables, that variation can be removed from the data. Models obtained after this normalization contain in general less latent variables, and this simplification helps when deciding on the number of latent variables to be used. Following normalization, GC-MS and LC-MS data were analyzed together. Initially, a global Principal Component Analysis (PCA) was performed to get an overview of groups and trends and to identify outliers. Projections to latent structures by means of Orthogonal Partial Least Squares Discriminant Analysis (OPLS-DA) was used to model the relationship between the X-matrix (metabolite concentrations) and the Y matrix (class, i.e. exposure group or sex), and to find x-variables that were related to class belonging. OPLS-DA is a supervised prediction and regression method that rotates the projection plane to find the maximum covariance between the data and the class assignment. All groups were first analyzed together in a 5-class OPLS-DA and then each exposure group was analyzed against the control group in a 2-class OPLS-DA. Sex differences were analyzed both using the whole data set and in each group separately using 2-class OPLS-DA, with females and males as the two classes. Only variables with 80% or more nonzero values were included in the statistical models. […] The validity of each model was also checked using CV-ANOVA (ANOVA of the cross-validated residuals). A significance level of p < 0.05 was used. For each model, R ^2 X, R ^2 Y and Q ^2 values were calculated, where R ^2 X is a measure of the fraction of x variation modeled in the extracted latent variables, R ^2 Y is a measure of the fraction of y variation modeled and Q ^2 is an estimate of the predictive ability of the model and is calculated by cross-validation. […]

With `O=C(O)C(F)(F)C(F)(F)C(F)(F)C(F)(F)C(F)(F)C(F)(F)C(F)(F)F` [PFOA, perfluorooctanoic acid] the “Mean concentration relative to control, feature 659.5483@11.4915495” value (PFOA 50) was 1.0, the “Mean concentration relative to control, feature 698.2598@1.3599721” value (PFOA 50) was 1.1 and the “Mean concentration relative to control, feature 700.5514@10.765638” value (PFOA 50) was 1.1. For the same molecule, the “Mean concentration relative to control, feature 755.5465@10.73882” value (PFOA 50) was 1, the “Mean concentration relative to control, feature 827.5078@8.831237” value (PFOA 50) was 1.2 and the “Mean concentration relative to control, feature 875.4661@10.5661745” value (PFOA 50) was 1.0. For the same molecule, the “Mean concentration relative to control, feature 1262.4865@1.947075” value (PFOA 50) was 1, the “Mean concentration relative to control, feature 1316.4163@1.9465046” value (PFOA 50) was 1.1* and the “Mean concentration relative to control, feature 1591.051@5.0189176” value (PFOA 50) was 1. For the same molecule, the “Mean concentration relative to control, feature 1591.388@5.0202384” value (PFOA 50) was 1, the “Mean concentration relative to control, feature 1591.7203@5.018071” value (PFOA 50) was 1 and the “Mean concentration relative to control, feature 118.0284@2.480333 (C4H6O4)” value (PFOA 250) was 1. For the same molecule, the “Mean concentration relative to control, feature 122.0486@0.675613” value (PFOA 250) was 1, the “Mean concentration relative to control, feature 126.0428@1.2278157 (Thymine)” value (PFOA 250) was 1.1* and the “Mean concentration relative to control, feature 146.0362@0.7772238” value (PFOA 250) was 1. The “Mean concentration relative to control, feature 159.0686@1.1608156” value (PFOA 250) was 1.4, the “Mean concentration relative to control, feature 164.0449@0.7694838” value (PFOA 250) was 1 and the “Mean concentration relative to control, feature 202.1024@5.0303197 (C8H14N2O4)” value (PFOA 250) was 1.1. For the same molecule, the “Mean concentration relative to control, feature 203.1162@0.5130696” value (PFOA 250) was 0.9, the “Mean concentration relative to control, feature 213.2458@7.4887733” value (PFOA 250) was 1.2** and the “Mean concentration relative to control, feature 215.047@1.6260729 (C5H14NO6P)” value (PFOA 250) was 1.0. For the same molecule, the “Mean concentration relative to control, feature 226.0721@1.9460537” value (PFOA 250) was 1, the “Mean concentration relative to control, feature 231.0174@1.6241412” value (PFOA 250) was 0.9 and the “Mean concentration relative to control, feature 233.1265@2.535991” value (PFOA 250) was 1.1. The “Mean concentration relative to control, feature 250.1317@2.1334834” value (PFOA 250) was 0.9, the “Mean concentration relative to control, feature 260.0508@0.69984084” value (PFOA 250) was 0.7* and the “Mean concentration relative to control, feature 276.0173@1.6283482” value (PFOA 250) was 0.9. The “Mean concentration relative to control, feature 278.0939@1.3354088” value (PFOA 250) was 1, the “Mean concentration relative to control, feature 293.0903@1.5739433” value (PFOA 250) was 1 and the “Mean concentration relative to control, feature 307.2147@7.5065937 (C18H29NO3)” value (PFOA 250) was 2.0***. The “Mean concentration relative to control, feature 310.178@7.5343466” value (PFOA 250) was 1.2**, the “Mean concentration relative to control, feature 339.3861@9.528681” value (PFOA 250) was 1.4* and the “Mean concentration relative to control, feature 342.2883@7.526812” value (PFOA 250) was 0.7***. The “Mean concentration relative to control, feature 348.0675@1.5761927” value (PFOA 250) was 1, the “Mean concentration relative to control, feature 355.9454@0.68034226” value (PFOA 250) was 1 and the “Mean concentration relative to control, feature 362.1467@0.8461036” value (PFOA 250) was 1.0. For the same molecule, the “Mean concentration relative to control, feature 366.1431@1.4228548” value (PFOA 250) was 1, the “Mean concentration relative to control, feature 373.296@9.044806” value (PFOA 250) was 1.1 and the “Mean concentration relative to control, feature 375.3108@8.995564” value (PFOA 250) was 1. The “Mean concentration relative to control, feature 389.2686@9.046645” value (PFOA 250) was 1, the “Mean concentration relative to control, feature 407.0999@1.585909” value (PFOA 250) was 1 and the “Mean concentration relative to control, feature 412.135@2.4779084 (C17H24N4O6S)” value (PFOA 250) was 1. The “Mean concentration relative to control, feature 444.3607@10.33052” value (PFOA 250) was 0.7*, the “Mean concentration relative to control, feature 471.9819@0.685074” value (PFOA 250) was 1.1 and the “Mean concentration relative to control, feature 489.1508@8.562614” value (PFOA 250) was 0.8. The “Mean concentration relative to control, feature 509.1184@2.4798179” value (PFOA 250) was 1, the “Mean concentration relative to control, feature 525.2855@8.361063” value (PFOA 250) was 1 and the “Mean concentration relative to control, feature 545.2492@8.463657” value (PFOA 250) was 1.1. The “Mean concentration relative to control, feature 558.4095@9.459733” value (PFOA 250) was 1, the “Mean concentration relative to control, feature 565.1902@0.7699907” value (PFOA 250) was 1.0 and the “Mean concentration relative to control, feature 577.2747@9.25652” value (PFOA 250) was 1.1. The “Mean concentration relative to control, feature 581.1643@0.77029324” value (PFOA 250) was 1.1, the “Mean concentration relative to control, feature 634.2403@1.9467853” value (PFOA 250) was 1 and the “Mean concentration relative to control, feature 644.1614@0.7647065” value (PFOA 250) was 1.1*. The “Mean concentration relative to control, feature 659.5483@11.4915495” value (PFOA 250) was 0.9, the “Mean concentration relative to control, feature 698.2598@1.3599721” value (PFOA 250) was 1.1 and the “Mean concentration relative to control, feature 700.5514@10.765638” value (PFOA 250) was 1.1. For the same molecule, the “Mean concentration relative to control, feature 755.5465@10.73882” value (PFOA 250) was 1.2, the “Mean concentration relative to control, feature 827.5078@8.831237” value (PFOA 250) was 1.2 and the “Mean concentration relative to control, feature 875.4661@10.5661745” value (PFOA 250) was 1.0. For the same molecule, the “Mean concentration relative to control, feature 1262.4865@1.947075” value (PFOA 250) was 1, the “Mean concentration relative to control, feature 1316.4163@1.9465046” value (PFOA 250) was 1.0 and the “Mean concentration relative to control, feature 1591.051@5.0189176” value (PFOA 250) was 1. The “Mean concentration relative to control, feature 1591.388@5.0202384” value (PFOA 250) was 0.9 and the “Mean concentration relative to control, feature 1591.7203@5.018071” value (PFOA 250) was 0.9.
